Experimental data from patent US5081242A, “6-benzoxazinyl- and 6-benzothiazinyl 2,3,4,5-tetrahydropyridazin-3-ones” (Ortho Pharmaceutical Corporation, priority 1991, dated 1992).

Legend:
adult mongrel dogs = assay: Cardiotonic activity in anesthetized dogs (myocardial contractile force, i.v.); assay type: in vivo; conditions: Canis lupus familiaris, iv, vs pretreatment control, read-out: CF: Percent increase in cardiac force; for change in vivo at 1.87 mg/kg: i.v. dose 1.87 mpk; for change in vivo at 0.47 mg/kg: i.v. dose 0.47 mpk
Description: The cardiotonic activity of the compounds was determined in accordance with the method of Alousi, A. A., et al., J. Cir. Res. 45, 666 (1979). Basically, adult mongrel dogs were anesthetized with sodium pentobarbital and artificially respired. Arterial pressure was recorded via a femoral artery and the pressure pulse used to trigger a cardiotachometer for heart rate. Left ventricular pressure was measured with a Millar catheter and dP/dt was derived. Cardiac output was determined by measuring ascending aortic blood flow with an electromagnetic flow probe and myocardial contractile force was measured with a Walton Brodie strain gauge sutured to the right ventricle. Lead II EKG was also recorded. A standard does of dopamine was administered to assess myocardial responsiveness. Test compounds were administered by i.v. infusion or bolus administration and the effects on cardiovascular parameters were determined. Dose-related effects of the test compound on BP, HR, dP/dt max., C.F. and C.O. were compared to pretreatment control values and expressed as a percentage change.

[1] = molecular target: cyclic nucleotide phosphodiesterase; assay: Phosphodiesterase inhibitory activity (cyclic AMP hydrolysis); assay type: biochemical; conditions: read-out: IC50 (50% inhibition of cyclic nucleotide phosphodiesterase activity); cyclic AMP 0.10-1.0 μM, pH 7.4

| Structure (SMILES) | change in vivo at 1.87 mg/kg (adult mongrel dogs) [%] | IC50 [1] [µM] | change in vivo at 0.47 mg/kg (adult mongrel dogs) [%] | change in vivo at 0.075 mg/kg (adult mongrel dogs; i.v. dose 0.075 mpk) [%] |
| --- | --- | --- | --- | --- |
| CC1CC(=O)NN=C1c1ccc2c(c1)NCCO2 (racemic) [Example 15, 6-(3,4-Dihydro-1,4(2H)-benzoxazin-6-yl)-2,3,4,5-tetrahydro-5-methylpyridazin-3-one] | 125 | 8 |  |  |
| CC(=O)N1CCOc2ccc(C3=NNC(=O)CC3C)cc21 (racemic) [Example 16, 6-(4-Acetyl-3,4-dihydro-1,4(2H)-benzoxazin-6-yl)-2,3,4,5-tetrahydro-5-methylpyridazin-3-one] | 173 | 30 |  |  |
| CC1CC(=O)NN=C1c1ccc2c(c1)N(S(C)(=O)=O)CCO2 (racemic) [Example 17, 6-(3,4-Dihydro-4-methanesulfonyl-1,4(2H)-benzoxazin-6-yl)-2,3,4,5-tetrahydro-5-methylpyridazin-3-one] | 62 | 4 |  |  |
| CC1CNc2cc(C3=NNC(=O)CC3)ccc2O1 (racemic) [Example 18, 6-(3,4-Dihydro-2-methyl-1,4(2H)-benzoxazin-6-yl)-2,3,4,5-tetrahydropyridazin-3-one] |  | 8 | 50 |  |
| CC1CC(=O)NN=C1c1ccc2c(c1)NC(=O)CO2 (racemic) [Example 22, 6-(3,4-Dihydro-3-oxo-1,4(2H)-benzoxazin-6-yl)-2,3,4,5-tetrahydro-5-methylpyridazin-3-one] |  | 2 | 136 |  |
| CC1CC(=O)NN=C1c1ccc2c(c1)N(C)C(=O)CO2 (racemic) [Example 23, 6-(3,4-Dihydro-4-methyl-3-oxo-1,4(2H)-benzoxazin-6-yl)-2,3,4,5-tetrahydro-5-methylpyridazin-3-one] |  | 8 | 134 |  |
| CC1Oc2ccc(C3=NNC(=O)CC3)cc2NC1=O (racemic) [Example 24, 6-(3,4-Dihydro-2-methyl-3-oxo-1,4(2H)-benzoxazin-6-yl)-2,3,4,5-tetrahydropyridazin-3-one] |  | 14 | 54 |  |
| CC1Oc2ccc(C3=NNC(=O)CC3)cc2N(C)C1=O (racemic) [Example 25, 6-(3,4-Dihydro-2,4-dimethyl-3-oxo-1,4(2H)-benzoxazin-6-yl)-2,3,4,5-tetrahydropyridazin-3-one] |  | 13 | 31 |  |
| Cc1cc2c(cc1C1=NNC(=O)CC1C)NC(=O)CO2 (racemic) [Example 30, 6-(3,4-Dihydro-7-methyl-3-oxo-1,4(2H)-benzoxazin-6-yl)-2,3,4,5-tetrahydro-5-methylpyridazin-3-one] |  | 20 | 124 |  |
| Cc1cc2c(cc1C1=NNC(=O)CC1C)N(C)C(=O)CO2 (racemic) [Example 31, 6-(3,4-Dihydro-4,7-dimethyl-3-oxo-1,4(2H)-benzoxazin-6-yl)-2,3,4,5-tetrahydro-5-methylpyridazin-3-one] |  | 38 | 33 |  |
| Cc1cc2c(cc1C1=NNC(=O)CC1)N(C)C(=O)C(C)O2 (racemic) [Example 33, 6-(3,4-Dihydro-2,4,7-trimethyl-3-oxo-1,4(2H)-benzoxazin-6-yl)-2,3,4,5-tetrahydropyridazin-3-one] |  | 30 | 8 |  |
| CC1CC(=O)NN=C1c1ccc2c(c1)OCC(=O)N2 (racemic) [Example 46, 6-(3,4-Dihydro-3-oxo-1,4(2H)-benzoxazin-7-yl)-2,3,4,5-tetrahydro-5-methylpyridazin-3-one] |  | 0.3 |  | 130 |
| CS(=O)(=O)N1CCOc2ccc(C3=NNC(=O)CC3)cc21 [Example 8, 6-(3,4-Dihydro-4-methanesulfonyl-1,4(2H)-benzoxazin-6-yl)-2,3,4,5-tetrahydropyridazin-3-one] | 98 | 9.5 |  |  |
| CN1N=C(c2ccc3c(c2)N(S(C)(=O)=O)CCO3)CCC1=O [Example 9, 6-(3,4-Dihydro-4-methanesulfonyl-1,4(2H)-benzoxazin-6-yl)-2,3,4,5-tetrahydro-2-methylpyridazin-3-one] | 62 | 100 |  |  |
| CCCCCN1N=C(c2ccc3c(c2)N(S(C)(=O)=O)CCO3)CCC1=O [Example 10, 6-(3,4-Dihydro-4-methanesulfonyl-1,4(2H)-benzoxazin-6-yl)-2,3,4,5-tetrahydro-2-pentylpyridazin-3-one] | 18 |  |  |  |
| C=CCN1N=C(c2ccc3c(c2)N(S(C)(=O)=O)CCO3)CCC1=O [Example 11, 6-(3,4-Dihydro-4-methanesulfonyl-1,4(2H)-benzoxazin-6-yl)-2,3,4,5-tetrahydro-2-(2-propenyl)pyridazin-3-one] | 41 |  |  |  |
| O=C1CCC(c2ccc3c(c2)NCCO3)=NN1 [Example 12, 6-(3,4-Dihydro-1,4(2H)-benzoxazin-6-yl)-2,3,4,5-tetrahydropyridazin-3-one] | 92 |  |  |  |

| Structure (SMILES) | change in vivo at 1.87 mg/kg (adult mongrel dogs) [%] | IC50 [1] [µM] | change in vivo at 0.47 mg/kg (adult mongrel dogs) [%] | change in vivo at 0.075 mg/kg (adult mongrel dogs; i.v. dose 0.075 mpk) [%] |
| --- | --- | --- | --- | --- |
| CC(=O)N1CCOc2ccc(C3=NNC(=O)CC3)cc21 [Example 13, 6-(4-Acetyl-3,4-dihydro-1,4(2H)-benzoxazin-6-yl)-2,3,4,5-tetrahydropyridazin-3-one] | 71 | 100 |  |  |
| COc1ccc(C(=O)N2CCOc3ccc(C4=NNC(=O)CC4)cc32)cc1OC [Example 14, 6-(3,4-Dihydro-4-(3,4-dimethoxyphenylcarbonyl)-1,4(2H)-benzoxazin-6-yl)-2,3,4,5-tetrahydropyridazin-3-one] | 30 | 80 |  |  |
| CC1CNc2cc(C3=NNC(=O)CC3C)ccc2O1 (centres unmarked) [Example 19, 6-(3,4-Dihydro-2-methyl-1,4(2H)-benzoxazin-6-yl)-2,3,4,5-tetrahydro-5-methylpyridazin-3-one] |  | 40 | 98 |  |
| O=C1CCC(c2ccc3c(c2)NC(=O)CO3)=NN1 [Example 20, 6-(3,4-Dihydro-3-oxo-1,4(2H)-benzoxazin-6-yl)-2,3,4,5-tetrahydropyridazin-3-one] | 71 | 630 |  |  |
| CN1C(=O)COc2ccc(C3=NNC(=O)CC3)cc21 [Example 21, 6-(3,4-Dihydro-4-methyl-3-oxo-1,4(2H)-benzoxazin-6-yl)-2,3,4,5-tetrahydropyridazin-3-one] |  | 18 | 74 |  |
| CC1CC(=O)NN=C1c1ccc2c(c1)NC(=O)C(C)O2 (centres unmarked) [Example 26, 6-(3,4-Dihydro-2-methyl-3-oxo-1,4(2H)-benzoxazin-6-yl)-2,3,4,5-tetrahydro-5-methylpyridazin-3-one] |  | 5 | 156 |  |
| CC1CC(=O)NN=C1c1ccc2c(c1)N(C)C(=O)C(C)O2 (centres unmarked) [Example 27, 6-(3,4-Dihydro-2,4-dimethyl-3-oxo-1,4(2H)-benzoxazin-6-yl)-2,3,4,5-tetrahydro-5-methylpyridazin-3-one] |  | 6 | 117 |  |
| Cc1cc2c(cc1C1=NNC(=O)CC1)NC(=O)CO2 [Example 28, 6-(3,4-Dihydro-7-methyl-3-oxo-1,4(2H)-benzoxazin-6-yl)-2,3,4,5-tetrahydropyridazin-3-one] |  | 15 | 46 |  |
| Cc1cc2c(cc1C1=NNC(=O)CC1)N(C)C(=O)CO2 [Example 29, 6-(3,4-Dihydro-4,7-dimethyl-3-oxo-1,4(2H)-benzoxazin-6-yl)-2,3,4,5-tetrahydropyridazin-3-one] |  | 56 | 12 |  |
| CC1CC(=O)NN=C1c1ccc2c(c1)N(C(C)C)C(=O)C(C)O2 (centres unmarked) [Example 36, 6-(3,4-Dihydro-2-methyl-4-(1-methylethyl)-3-oxo-1,4(2H)-benzoxazin-6-yl)-2,3,4,5-tetrahydro-5-methylpyridazin-3-one] |  | 24 | 40 |  |
| CC1CC(=O)NN=C1c1ccc2c(c1)N(C1CCCC1)C(=O)C(C)O2 (centres unmarked) [Example 37, 6-(3,4-Dihydro-4-cyclopentyl-2-methyl-3-oxo-1,4(2H)-benzoxazin-6-yl)-2,3,4,5-tetrahydro-5-methylpyridazin-3-one] |  | 8 | 4 |  |
| Cc1cc2c(c(C3=NNC(=O)CC3)c1)OCC(=O)N2 [Example 38, 6-(3,4-Dihydro-6-methyl-3-oxo-1,4(2H)-benzoxazin-8-yl)-2,3,4,5-tetrahydropyridazin-3-one] |  | 31 | 24 |  |
| Cc1cc(C2=NNC(=O)CC2)c2c(c1)N(C)C(=O)CO2 [Example 39, 6-(3,4-Dihydro-4,6-dimethyl-3-oxo-1,4(2H)-benzoxazin-8-yl)-2,3,4,5-tetrahydropyridazin-3-one] |  | 28 | 18 |  |
| Cc1cc2c(c(C3=NNC(=O)CC3C)c1)OCC(=O)N2 (centres unmarked) [Example 40, 6-(3,4-Dihydro-6-methyl-3-oxo-1,4(2H)-benzoxazin-8-yl)-2,3,4,5-tetrahydro-5-methylpyridazin-3-one] |  | 26 | 22 |  |
| Cc1cc(C2=NNC(=O)CC2C)c2c(c1)N(C)C(=O)CO2 (centres unmarked) [Example 41, 6-(3,4-Dihydro-4,6-dimethyl-3-oxo-1,4(2H)-benzoxazin-8-yl)-2,3,4,5-tetrahydro-5-methylpyridan-3-one] |  | 7 | 60 |  |
| Cc1cc2c(c(C3=NNC(=O)CC3C)c1)OCCN2 (centres unmarked) [Example 42, 6-(3,4-Dihydro-6-methyl-1,4(2H)-benzoxazin-8-yl)-2,3,4,5-tetrahydro-5-methylpyridazin-3-one] |  |  | 15 |  |
